SMILES strings stand for the structures.

The compound `O=C1NC(=O)C2c3c([nH]c4ccc(Cl)cc34)-c3[nH]c4ccc(Cl)cc4c3C12` (stereo not drawn) yielded a melting point above 300 °C. The compound `COc1ccc(-c2c(C(=O)c3ccccc3)c(CSc3nccn3C)nc3cc(OC)c(OC)cc23)cc1OC` yielded a melting point of 185 to 186 °C. Take `Clc1ccc(NC2CCC3(CCNCC3)CC2)cc1Cl`: the melting point fell in the range of 128 to 132 °C. Take `COc1ccc2c(c1)C=CC(C#N)N2C(=O)c1ccccc1` (stereo not drawn): the melting point turned out to be 124 °C. Then `CCC(=O)Nc1cccc2c1C(=O)N(C1CCC(=O)NC1=O)C2=O` (stereo not drawn), with 221 to 223 °C; and `COC(=O)c1nc(SC)n(-c2ccccc2)c1C(=O)OC`, with 121 to 122 °C; and `CCOCc1nc2c(N)nc3ccccc3c2n1CCCC(C)N(OC)S(C)(=O)=O` (stereo not drawn), with 146 to 148 °C. The compound `OCC(O)COc1cccc2cccnc12` (stereo not drawn) had a melting point of 193 to 194 °C. In turn, `O=C(c1ccn2c1CSC2c1cccnc1)c1cn(CCO)c2cc(-c3ccc(F)cc3)ccc12` (stereo not drawn) had a melting point of 170 to 171 °C. The value for `CCCCc1cnc2ccc(C(=O)O)cc2c1O` was 260 °C. On to `COC(=O)C(NC(=O)c1ccccc1)c1ccc(-c2ccc(S(=O)(=O)O)cc2)cc1` (stereo not drawn), for which the melting point is above 250 °C. The value for `O=C(O)c1cc(C(F)(F)F)nn1-c1ncccc1Cl` was 175 to 176 °C; that for `CC(C)CC1(C(N)C(=O)OC(C)(C)C)CCN(CCc2ccccc2)C1=O` (stereo not drawn) was 111 to 113 °C.

With `COc1cc(-c2cn(-c3cccc(OCCn4ccnc4)c3)c3ncnc(N)c23)ccc1OCc1ccccc1`, the melting point was in the range of 122 to 124 °C. `CN(C)Cc1ccc(CNC(=O)C2Cc3ccccc3N2S(=O)(=O)c2ccc(-c3cccc(C(F)(F)F)c3)cc2)cc1` (stereo not drawn) came in with a melting point of 70 °C. For the compound `COc1ccccc1NC(=O)Nc1nc(Nc2ccccc2-c2ccccc2)nc(N2CCC(C(=O)O)CC2)n1`, the melting point is 130 to 135 °C. In the case of `O=CC(=Cc1ccccc1OCc1ccc(Cl)cc1)C(C=O)=Cc1ccccc1OCc1ccc(Cl)cc1`, the melting point was in the range of 186 to 187 °C.

`OCC1C(c2ccc(F)cc2)CCC12C=Cc1ccccc12` (stereo not drawn) showed a melting point of 84 to 86 °C.

Take `COC(=O)c1ccc(Cn2c(C(=O)Nc3nc(-c4cc(OC)c(Cl)cc4OC)c(CCC4CCCCC4)s3)cc3cc(C)cc(C)c32)cc1`: the melting point lay within 199 to 200 °C. Then `CNC(=N)Cc1nc(C(C)C)c(Sc2cc(Cl)cc(Cl)c2)n1C`, with 176 to 178 °C; and `CC(=O)N(C)c1ccc(N(CCCCN(c2ccc(N(C)C(C)=O)cc2)S(=O)(=O)c2ccccc2)S(=O)(=O)c2ccccc2)cc1`, with 235 °C; and `CC(c1oc2ccccc2c(=O)c1-c1cccc(F)c1)n1nc(-c2cccc(C(=O)NC3CC3)c2)c2c(N)ncnc21` (stereo not drawn), with 127 to 132 °C. `CCCCCCCN1C(=O)C2CC(c3ccc(N)cc3)(C2)C1=O` displayed a melting point of 69 to 71 °C. The value for `CCc1nnc2cc(C)c(-c3ccc(C(N)=O)cc3)nn12` was 210 to 213 °C. Compound `O=C=Nc1ccc2c(c1)C(=O)CC2` gave a melting point of 72 °C.

Compound `CON=C1CN(c2c(F)cc3c(=O)c(C(=O)O)cn(C4CC4)c3c2OC)CC12CC2` returned a melting point of 219 to 221 °C. The value for `NS(=O)(=O)c1ccc(-n2nc(CCNC(=O)Nc3cccc(C(F)(F)F)c3)cc2-c2ccccc2)cc1` was 122 to 125 °C; that for `COc1cc(N)c(Cl)cc1C(=O)N[C@H]1CCN(CCO)C[C@H]1OC` (relative stereo) was 153 °C.

`O=c1ccc(-c2c(-c3ccccc3)nn3ccccc23)nn1CC1(O)CCNCC1` registered a melting point above 260 °C. The value for `Oc1cccc(-c2c(-c3ccccc3F)cnc3c(C(F)(F)F)cccc23)c1` was 186 to 187 °C; that for `COC(=O)C1(C)CC(C(=O)Nc2ccc(Cl)cc2)=NN1c1ccc(Cl)cc1` (stereo not drawn) was 138 to 140 °C. Then `C=Cc1ccc(COc2ccc(CO)cc2)cc1`, with 110 to 112 °C; and `CC(=O)c1c2sc3ccccc3nc-2ccc1=O`, with 222 °C; and `CCOC(=O)CCCCOc1ccc([N+](=O)[O-])c(/C=C2\CC(=O)NC2=O)c1`, with 112 °C.

On to `CSc1nc(CC2CCN(c3ccc(F)cc3)CC2)nc(C(=O)NCC(=O)O)c1O`, for which the melting point lay within 228 to 230 °C. Then `CC1(O)CCC2(C)C(CCC3C2CCC2(C)C(c4cc(CO)no4)CCC32)C1` (stereo not drawn), with 192 to 193 °C; and `COc1ccc(S(=O)(=O)N2Cc3cc4c(cc3CC2C(=O)NO)OCO4)cc1` (stereo not drawn), with 166 °C.

`CCCCN(N)C(=O)NC` showed a melting point of 48 to 50 °C. As to `O=Cc1ccc(-c2cc(C(F)(F)F)n(Cc3ccccc3)n2)o1`, the melting point was in the range of 76.5 to 77.5 °C. Then `CN(Cc1ccccc1)Cc1c(-c2ccc(NC(=O)C(C)(C)O)cc2)sc2c1c(=O)c(C(=O)c1ccccc1)cn2Cc1c(F)cccc1F`, with 222 to 223 °C; and `COC(=O)C(CSSc1ccccc1C(=O)Nc1ccc(S(N)(=O)=O)cc1)NC(C)=O` (stereo not drawn), with 138 to 140 °C; and `Fc1ccc(C(c2ccc(OCc3ccccc3)cc2)C(c2ccccc2)C(F)(F)F)cc1` (stereo not drawn), with 111 to 114 °C. Then `Cc1cccc(C(=O)Nc2c(NC(=O)CCl)ccc3c2C(=O)c2ccccc2C3=O)c1`, with 202 to 203 °C. `CC(=O)N1CCN(CC2CN=C(c3cc4cc(OCCCS(C)(=O)=O)cc(N(C)S(=O)(=O)c5ccccn5)c4[nH]3)S2)CC1` (stereo not drawn) gave a melting point of 165 to 167 °C.

In turn, `Cc1ccc(CC2(O)CCN(C(C)C(=O)Nc3ccc(O[Si](C)(C)C(C)(C)C)cc3)CC2)cc1` (racemic) returned a melting point of 134 to 138 °C. Then `CN(c1cccc2cc(C(=O)NCC(C)(CCO)SCc3ccccc3)[nH]c12)S(=O)(=O)c1cccs1` (stereo not drawn), with 132 to 133 °C; and `Nc1cc2c(cc1[N+](=O)[O-])OCC2`, with 152 °C. With `CCCn1c(=O)c2[nH]c(C3CCCC3)nc2n(CCc2ccc(NC(=O)CC)cc2)c1=O`, the melting point was above 270 °C.

On to `NC(c1ccccc1)c1ccc(C(N)c2ccccc2)cc1` (stereo not drawn), for which the melting point fell in the range of 123 to 127 °C. The value for `CC(=O)NC[C@H]1CN(c2ccc(N3CC(N(C)CCF)C3)c(F)c2)C(=O)O1` was 126 to 127 °C; that for `CCCCS(=O)(=O)Nc1ccc(Oc2cc(C)cc3cccnc23)cc1` was 189 to 190 °C; that for `CCSC(=S)N1Cc2[nH]c3ccccc3c2CC1C(=O)O` (stereo not drawn) was 177 to 178 °C. As to `COC(=O)C(C)(SC)c1ccc(C(OC)(OC)c2ccccc2)s1` (stereo not drawn), the melting point is 61.5 to 62.5 °C. Then `COc1cc(C(C)=O)cc(Br)c1Oc1nc(C)nc(N2CCOCC2)n1`, with 159 to 162 °C. Compound `CSc1nc2cc3c(cc2[nH]1)NC(=O)C3(C)C` returned a melting point of 248 to 250 °C. In turn, `CCn1nc(-c2ccncc2)c(C(C)=O)c(Nc2ccc(C(=O)O)cc2)c1=O` returned a melting point of 252 to 253 °C.

For the compound `CCCCCCCCCCC[C@@H](C[C@@H]1OC(=O)[C@H]1CCCCCC)OC(=O)[C@H](CC(C)C)NC(=O)OCc1ccccc1`, the melting point lay within 43 to 46 °C. The value for `O=C1C(=O)N(Cc2ccc(O)cc2)c2ccc(S(=O)(=O)N3CCCC3COc3cccnc3)cc21` (stereo not drawn) was 127 to 129 °C; that for `O=C(CCCN1CCC(c2noc3cc(F)ccc23)CC1)c1cc2c(s1)C(=O)NCCC2` was 186 to 187 °C. The value for `O=C(N[C@@H](Cc1ccc(C(F)(F)F)cc1)[C@H](O)c1ccncc1)c1ccc(F)c2ccccc12` was 239 to 243 °C; that for `COc1c(Br)ccc2oc(COc3ccc(-c4ccc(S(=O)(=O)NC(C(=O)O)C(C)C)cc4)cc3)c(C)c12` (stereo not drawn) was 198 to 200 °C. The compound `CC(C)COc1ccc(C(=O)NCC(=O)O)cc1` showed a melting point of 140 to 142 °C. Then `CN1CCN(Cc2cccc(-c3cc4c(Nc5cccc6[nH]ccc56)c(C#N)cnc4s3)c2)CC1`, with above 245 °C; and `Cc1cc(Br)c([N+](=O)[O-])c(Br)n1`, with 118 to 120 °C. Turning to `Oc1c(I)cc(-c2c3ccccc3cc3sc4ccccc4c23)cc1I`, the melting point lay within 213 to 214 °C.

As for `COc1ccc(N2CCN(c3c(C)c(C)c4c(c3C)C(=O)C(C)(C)O4)CC2)cc1`, the melting point lay in the range of 144 to 146 °C. For the compound `C=CCN1CCc2c(sc(N)c2C(=O)c2ccc(Cl)cc2)C1`, the melting point fell in the range of 118 to 120 °C.

As to `C#CCOc1ccc(OC)cc1-c1nc2ncccc2[nH]1`, the melting point was found to be 220 °C. The compound `COc1cc2cc(C#N)sc2cc1OC` came in with a melting point of 125 °C. Take `COCCOc1ccc(CCCOC(=O)NS(=O)(=O)NCCc2ccccc2)c(Oc2ncc(C(F)(F)F)cc2Cl)c1`: the melting point is 110 to 113 °C. The value for `CCCCCCC(=O)NCc1cccc2c1C(=O)N(C1CCC(=O)NC1=O)C2=O` (stereo not drawn) was 130 to 132 °C; that for `Cc1ccc(-c2ccccc2NC(=N)N(C)C)cc1` was 147 to 148 °C; that for `FC(F)(F)c1cccc(Oc2ccnc(-c3ccc(Cl)cc3)n2)c1` was 92 °C.

Compound `CCCCCc1nc2c(N)nc3ccccc3c2s1` showed a melting point of 119 to 121 °C.

`O=c1[nH]c(=O)n(CCCCN2CCC(OC(c3ccccc3)c3ccccc3)CC2)c2ccc(Cl)cc12`: the melting point lay in the range of 209 to 210 °C. Then `CCCN(CCC)C(=O)C(=NNc1ccccc1)C(C)=O`, with 79 to 80 °C; and `CCOc1ccccc1C(=O)Nc1cccc(C)c1C(N)=O`, with 166 to 168 °C; and `CC1(C)OC(=S)Nc2ccc(-c3cccc(Br)c3)cc21`, with 191 to 193 °C.

The compound `OCc1ccnc(F)c1` showed a melting point of 61 to 63 °C.

As to `COc1ccccc1Oc1c(Cl)nc(N2CCOCC2)nc1OCCOCc1ccccc1`, the melting point lay in the range of 133 to 134 °C.

For the compound `Cn1nnnc1C=C(c1ccccc1)c1ccccc1`, the melting point lay in the range of 147 to 148 °C.

In turn, `CS(=O)(=O)c1ccc(NCC(O)CO)c([N+](=O)[O-])c1` (stereo not drawn) yielded a melting point of 133 °C. `CC(=S)NC[C@H]1CN(c2ccc(N3CCN(C(=O)CO)CC3)c(F)c2)C(=O)O1` displayed a melting point of 163 to 165 °C.

The melting point is the temperature, or range, at which the solid turns liquid.

The values above are taken from a melting point compilation (Tetko et al.; mined from patent text by program, amines drawn as free bases though some values may be those of a salt).
